From PMC12608337 (Molecules, 2025)

How the values were obtained:
wt-YFV = assay type: cell-based, yellow fever virus
in vitro = settings: African green monkey (Cercopithecus aethiops)
[1] = tested on: herpes simplex virus (type 1); settings: cited from earlier work
Spodoptera littoralis = settings: cited from earlier work
[2] = tested on: dengue virus type 2 (DENV-2); settings: cited from earlier work
Zika virus (ZIKV) = settings: cited from earlier work
ZIKV = settings: mouse, in vivo; cited from earlier work

C[n+]1cccc(C(=O)[O-])c1 [Trigonelline, trigonelline]
antiviral activity against wt-YFV (wt-YFV): did not reveal significant antiviral activity | CC50 (in vitro): ~1 mM | inhibition of survival of herpes simplex virus (type 1) [1]: significantly inhibited the survival

COc1cc2c(cc1OC)[C@@H]1[C@H](O)[C@@H](OC)[C@H](OC(C)=O)C3=CCN(C2)[C@H]31 [3-O-acetyl-narcissidine, 3-O-acetylnarcissidine]
antifeedant effect (Spodoptera littoralis): exhibited an antifeedant effect

N=C(N)NCCC[C@H](N)C(=O)O [arginine]
antiviral activity against wt-YFV (wt-YFV): did not reveal significant antiviral activity | CC50 (in vitro): ~1 mM

O[C@H]1[C@H]2c3cc4c(cc3CN3CCC(=C[C@@H]1O)[C@H]23)OCO4 [lycorine]
antiviral activity against DENV-2 [2]: exhibits antiviral activity | antiviral activity against ZIKV (Zika virus (ZIKV)): exhibits antiviral activity | mortality (ZIKV): reduced mortality | viral load in the blood (ZIKV): lower viral load in the blood

COc1c2c(cc3c1OCO3)[C@@]13CCN(C2)[C@@H]1CC[C@H](O)[C@@H]3O [Bulbisine, bulbisine]
antiviral activity against wt-YFV (wt-YFV): did not reveal significant antiviral activity | CC50 (in vitro): 0.123 mM

N[C@@H](CCC(=O)O)C(=O)O [glutamic acid]
antiviral activity against wt-YFV (wt-YFV): did not reveal significant antiviral activity

NC(=O)C[C@H](N)C(=O)O [asparagine]
antiviral activity against wt-YFV (wt-YFV): did not reveal significant antiviral activity | CC50 (in vitro): ~1 mM

N[C@@H](Cc1c[nH]c2ccccc12)C(=O)O [tryptophan]
antiviral activity against wt-YFV (wt-YFV): did not reveal significant antiviral activity | CC50 (in vitro): 0.578 mM
